From ChEMBL document CHEMBL1201862, “PubChem BioAssay data set” (2004)
Activity calls are given as the source filed them.

Columns and labels:
cells [1] = type: functional, cell-based
cells [2] = type: functional, cell-based; remark: listed apart in the source
[3] = biological target: T1, Replicative DNA helicase DnaB (Mycobacterium tuberculosis, UniProt P9WMR3); assay: DnaB intein splicing inhibitors, dose response, biochemical, cell-free fluorescence (AID 449749); type: functional
T1 sequence (P9WMR3 whole entry): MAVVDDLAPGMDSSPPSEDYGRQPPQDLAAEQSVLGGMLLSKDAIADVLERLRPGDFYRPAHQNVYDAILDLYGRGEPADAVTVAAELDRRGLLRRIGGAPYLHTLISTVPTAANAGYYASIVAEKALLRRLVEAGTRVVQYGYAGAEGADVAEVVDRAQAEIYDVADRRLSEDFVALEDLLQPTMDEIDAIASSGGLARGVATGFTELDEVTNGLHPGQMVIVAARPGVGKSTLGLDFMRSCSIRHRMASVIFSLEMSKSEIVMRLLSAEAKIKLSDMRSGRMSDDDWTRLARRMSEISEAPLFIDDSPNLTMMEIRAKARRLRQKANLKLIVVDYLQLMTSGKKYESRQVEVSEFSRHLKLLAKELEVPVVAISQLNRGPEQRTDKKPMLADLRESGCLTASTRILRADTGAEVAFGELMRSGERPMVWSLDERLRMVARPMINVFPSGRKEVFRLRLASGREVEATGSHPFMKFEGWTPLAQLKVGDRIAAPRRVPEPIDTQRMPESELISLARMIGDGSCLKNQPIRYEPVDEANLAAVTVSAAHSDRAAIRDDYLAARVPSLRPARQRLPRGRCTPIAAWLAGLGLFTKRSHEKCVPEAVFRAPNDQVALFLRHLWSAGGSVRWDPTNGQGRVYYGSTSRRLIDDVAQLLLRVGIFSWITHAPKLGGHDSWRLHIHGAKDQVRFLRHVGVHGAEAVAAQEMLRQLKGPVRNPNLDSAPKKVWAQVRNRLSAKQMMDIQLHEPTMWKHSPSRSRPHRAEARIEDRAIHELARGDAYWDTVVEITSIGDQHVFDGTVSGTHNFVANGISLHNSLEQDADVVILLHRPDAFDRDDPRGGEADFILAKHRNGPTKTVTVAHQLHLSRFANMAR

Protein RecA = biological target: T2, Protein RecA (Mycobacterium tuberculosis, UniProt P9WHJ3); assay: Fluorescence Cell-Free Homogeneous Dose Retest to Identify Inhibitors of RecA-Intein Splicing Activity. [Related pubchem assays (depositor defined):AID2097, AID2223, AID489010, AID492950]; type: functional
T2 sequence (P9WHJ3 whole entry): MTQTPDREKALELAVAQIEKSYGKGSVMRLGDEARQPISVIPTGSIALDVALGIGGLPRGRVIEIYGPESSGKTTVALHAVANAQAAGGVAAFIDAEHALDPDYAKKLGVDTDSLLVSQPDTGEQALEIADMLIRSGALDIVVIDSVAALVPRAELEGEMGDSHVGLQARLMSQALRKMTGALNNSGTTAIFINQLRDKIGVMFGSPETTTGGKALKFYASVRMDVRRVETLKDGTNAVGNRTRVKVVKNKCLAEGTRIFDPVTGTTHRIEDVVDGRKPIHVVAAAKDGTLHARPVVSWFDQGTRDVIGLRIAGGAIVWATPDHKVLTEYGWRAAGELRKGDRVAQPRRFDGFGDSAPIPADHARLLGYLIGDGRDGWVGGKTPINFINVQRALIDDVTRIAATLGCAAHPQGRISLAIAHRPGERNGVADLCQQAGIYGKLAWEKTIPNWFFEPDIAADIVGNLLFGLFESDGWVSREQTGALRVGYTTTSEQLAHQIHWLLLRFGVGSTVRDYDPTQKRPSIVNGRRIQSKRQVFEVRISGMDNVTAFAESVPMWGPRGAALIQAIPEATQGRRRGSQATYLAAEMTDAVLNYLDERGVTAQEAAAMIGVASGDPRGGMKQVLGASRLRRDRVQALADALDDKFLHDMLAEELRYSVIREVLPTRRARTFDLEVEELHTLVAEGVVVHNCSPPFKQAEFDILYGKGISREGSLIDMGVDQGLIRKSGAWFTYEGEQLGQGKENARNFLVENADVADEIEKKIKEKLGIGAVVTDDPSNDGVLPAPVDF

[4] = biological target: T3, Rac GTPase-activating protein 1 (Homo sapiens, UniProt Q9H0H5); assay: blockers of MgcRacGAP-driven Rac1 GTP hydrolysis – biochemical, ADP Hunter fluorescence, primary and confirmatory, confirmation (AID 624330); type: functional
T3 sequence (Q9H0H5 whole entry): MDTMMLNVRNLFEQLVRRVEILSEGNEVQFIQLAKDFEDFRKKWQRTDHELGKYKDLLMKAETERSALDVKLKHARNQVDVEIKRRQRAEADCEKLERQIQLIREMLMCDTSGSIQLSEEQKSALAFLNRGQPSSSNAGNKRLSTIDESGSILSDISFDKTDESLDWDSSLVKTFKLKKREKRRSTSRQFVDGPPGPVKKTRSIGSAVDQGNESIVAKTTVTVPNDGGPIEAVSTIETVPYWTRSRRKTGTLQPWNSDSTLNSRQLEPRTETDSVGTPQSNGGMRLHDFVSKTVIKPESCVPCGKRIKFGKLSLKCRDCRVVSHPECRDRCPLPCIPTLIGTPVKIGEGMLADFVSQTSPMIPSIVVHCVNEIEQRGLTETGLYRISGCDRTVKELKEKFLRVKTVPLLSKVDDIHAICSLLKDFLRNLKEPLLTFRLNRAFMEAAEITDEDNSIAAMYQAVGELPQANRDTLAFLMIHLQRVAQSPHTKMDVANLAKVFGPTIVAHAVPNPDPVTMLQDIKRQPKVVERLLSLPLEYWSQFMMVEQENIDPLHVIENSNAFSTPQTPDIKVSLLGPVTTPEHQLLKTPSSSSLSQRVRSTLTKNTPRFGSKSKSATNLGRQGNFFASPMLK

[5] = growth inhibition of yeast DHODH-expressing 3D7 parasites – SYBR Green, dry powder samples, dose response (AID 1159570); type: functional, cell-based;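 also: parasite growth measured after 72 hours of compound exposure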
[6] = toxicity to human HepG2 hepatoma cells – cell-based, plate reader, dry powder samples, cytotoxicity control, dose response (AID 1159569); type: functional;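 also: inhibitor potency with signal falling toward the positive control level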
[7] = P. falciparum Dd2 growth inhibitors, dose response, SYBR Green, cherry-picked samples (AID 1159567); type: functional, cell-based
[8] = Dd2 malaria parasite growth inhibition potency – SYBR Green, dry powder samples, dose response (AID 1159566); type: functional, cell-based;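 also: potency for growth inhibition with lower SYBR green DNA signal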
[9] = toxicity to human hepatoma HepG2 cells – cell-based, cherry-picked samples, cytotoxicity control, dose response (AID 1159577); type: functional
[10] = growth inhibition of PfATP4-mutant resistant parasites – NITD609-resistant line, SYBR Green, dry powder, dose response (AID 1159571); type: functional, cell-based;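 also: parasites synchronized at ring stage by sorbitol before testing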
[11] = NIH-3T3 fibroblast cytotoxicity, dose response, cytotoxicity control, cell-based, fluorescence, Alamar Blue, secondary assay (AID 2327); type: functional;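 also: NIH-3T3 mouse fibroblasts cultured with fluconazole at 8 µg/mL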
[12] = fluconazole-exposed Candida albicans growth modulators – fluorescence, retest, confirmation (AID 2467); type: functional, cell-based
INS1 = assay: INS-1E survival protection against cytokine death – cell-based, luminescence, retest, dose response (AID 449756); type: functional; conditions: Rattus norvegicus;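 also: cell death triggered by IL-1 beta plus TNF-alpha plus IFN-gamma mixture; protective hits raise ATP signal compared with cytokine alone wells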
[13] = A549 cell cytotoxicity, dose response, cytotoxicity control, plate reader, cherry-pick, antagonist series (AID 743412); type: functional, cell-based
[14] = toxicity toward HepG2 liver cells – cell-based, plate reader, cherry-pick, antagonist series, cytotoxicity control, dose response (AID 743416); type: functional
[15] = blockers of bursicon-stimulated LGR2 cAMP reporter – cell-based, HEK293, CRE-luciferase reporter, cherry pick, set 2, dose response (AID 743343); type: functional;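 also: transfected cells were stimulated with diluted bursicon conditioned medium after compound addition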
[16] = blockade of melanocortin 4 receptor signaling – cell-based, plate reader, cherry pick, counter-screen for LGR2 antagonist project, dose response (AID 743444); type: functional;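 also: transfected HEK 293 cells stimulated with alpha-MSH peptide; potency of inhibitors of the alpha-MSH evoked signal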
[17] = biological target: T4, DNA repair protein RAD52 homolog (Homo sapiens, UniProt P43351); type: functional, biochemical
T4 sequence (P43351 whole entry): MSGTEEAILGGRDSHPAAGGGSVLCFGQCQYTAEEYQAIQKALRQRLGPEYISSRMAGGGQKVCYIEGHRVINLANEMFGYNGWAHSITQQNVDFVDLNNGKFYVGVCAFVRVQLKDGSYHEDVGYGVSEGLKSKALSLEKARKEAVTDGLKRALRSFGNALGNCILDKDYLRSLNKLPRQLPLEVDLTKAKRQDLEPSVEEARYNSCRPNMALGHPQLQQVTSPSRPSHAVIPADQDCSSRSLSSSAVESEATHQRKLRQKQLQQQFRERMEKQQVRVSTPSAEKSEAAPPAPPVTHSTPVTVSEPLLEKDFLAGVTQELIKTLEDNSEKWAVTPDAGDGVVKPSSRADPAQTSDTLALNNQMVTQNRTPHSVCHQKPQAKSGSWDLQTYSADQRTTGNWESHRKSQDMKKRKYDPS

In the case of `CCCc1n[nH]c2c1C(c1ccoc1)C(C#N)=C(N)O2` (stereo unspecified), the EC50 (cells [1]) is reported as > 350 µM (not active), the EC50 (cells [2]) is reported as > 350 µM (not active) and the AC50 [3] is reported as 4.51 µM (active). The EC50 (Protein RecA) was 2.39 µM (active).

For `CCOc1cc(/C=N/NC(=O)c2c(-c3ccccc3)noc2C)ccc1O`, the EC50 (cells [1]) was > 350 µM (not active), the EC50 (cells [2]) was > 350 µM (not active) and the IC50 [4] was 55.5 µM (active).

In the case of `OC[C@@H]1[C@H](c2ccc(-c3ccccc3)cc2)[C@H]2CN(CCC(F)(F)F)CCCCN12`, the AC50 [5] is reported as 1.15 µM (active), the AC50 [6] is reported as 18 µM (active) and the AC50 [7] is reported as 2.13 µM (active). For the same compound, the AC50 [8] was 0.623 µM (active), the AC50 [9] was 21.7 µM (active) and the AC50 [10] was 1.29 µM (active).

With `Cc1ccc(/C=N/NC(=O)c2c(-c3ccccc3)noc2C)c(O)c1` the EC50 [11] was > 150 µM (inactive), the EC50 (cells [1]) was 12.4 µM (active) and the EC50 [12] was 2.83 µM (active). The EC50 (cells [2]) was > 350 µM (not active) and the AC50 (INS1) was 2.33 µM (active).

In the case of `C=CCc1c(C)nc2cc(-c3ccc(C)cc3)nn2c1O`, the AC50 [13] is reported as 13.6 µM (active), the AC50 [14] is reported as 22.6 µM (active) and the AC50 [15] is reported as 26.4 µM (active). The AC50 [16] was 26.2 µM (active).

With `C[C@H]1CN([C@@H](C)CO)C(=O)CCCn2nncc2CO[C@@H]1CN(C)C(=O)Nc1ccc(N2CCN(C)CC2)cc1` the AC50 [17] was 28.2 µM (active).

For `CCOC(=O)c1sc(NC(=O)Nc2ccccc2F)nc1C`, the AC50 [14] was > 52 µM (inactive), the AC50 [15] was 2.48 µM (active) and the AC50 [16] was 4.34 µM (active).
